In patent US20250195474A1, “Piezo Inhibition for Wound Healing” (priority 2022, published 2025):

Columns and labels:
[1] = tested on: human adipocytes; experiment: Human adipocyte-populated collagen I hydrogels with or without mechanical stretch
[2] = tested on: human adipocytes; experiment: Calcium imaging of hydrogel-bound adipocytes (Fluo-4 AM); format: cell-based; settings: stretched human adipocytes
Text: Calcium imaging was used to determine in vitro Ca^2+ flow in hydrogel-bound adipocytes with or without mechanical strain and with or without Piezo1 inhibitor treatment. A Fluo-4, AM cell permeant kit (ThermoFisher, Cat: F-14201) was used per the manufacturer's instructions. […] Imagej was used for image quantification.

[3] = tested on: dorsal excisional wounds; experiment: Splinted dorsal excisional wounding with inhibitor injected at POD 0; format: in vivo, mouse
[4] = tested on: wounds; experiment: Visium spatial transcriptomic analysis of wounds; format: in vivo, mouse
Experimental: Wound specimens were rapidly harvested and flash frozen in OCT. Using the Visium Tissue Optimization Slide and Reagent Kit, permeabilization time was optimized at a thickness at 10 μm per section and 37 minutes for mouse tissue. Following cryo-sectioning at −20 degrees onto gene expression slides the expression slide and reagent kit was used to produce sequencing libraries. The libraries were then sequences using NextSeq (Illumina). Following demultiplication the raw FASTQ files and histology images were processed by sample with the Space Ranger software for genome alignment. The raw spaceranger output files for each sample was then read into a Seurat class object in R using Seurat's Load10× function. Data was normalized using the SCT transform with default parameters. To ascertain the integration of our scRNAseq and Visium spatial analysis we employed the FindTransferAnchors( ) function from Seurat, which allowed the alignment of data using the two datasets. This cross-platform linkage is performed serially in an unconstrained and constrained fashion.

[5] = tested on: wounds; experiment: CODEX spatial protein analysis of POD 14 wounds; format: in vivo, mouse; settings: POD 14, vs PBS
Text: To spatially phenotype the pig specimens, we used Co-Detection by Indexing (CODEX), a novel assay in which markers are labeled with oligonucleotide-conjugated antibodies and iteratively imaged between cyclic additions and washouts of dye-labeled oligonucleotides. A custom CODEX panel was designed to assess wound cells within the tissue see Table 1). In brief, primary antibodies were individually barcoded and validated using the commercial supplier's protocols. OCT for mouse or paraffin blocks for human xenograft (n=3 per group) were sectioned at 8 μm thickness onto coverslips for CODEX antibody staining. Antigens were retrieved by standard citrate-EDTA processing prior to addition of CODEX antibodies. Using a CODEX-integrated Keyence BZ-X instrument (Akoya Biosciences) image acquisition was then performed. Using software from Akoya Biosciences the raw images were process, with cell segmentation, and rendering.
The CODEX was visualized using Akoya Biosciences Multiplex Analysis Viewer (MAV) in ImageJ. The resulting .fcs files were then concatenated in FlowJo and imported into the Monocle3 and STvEA R packages for further analysis. After debris removal, the processed UMAP manifold was analyzed through Monocle3 with a post-manifold threshold of >10,000 cells per cluster. Analysis of the protein staining patterns was then used to assign cell types. The cell interactions were then inferred using STvEA for cell types at >2.5% of total abundance at k=20 nearest neighbors to quantify cell spatial interactions, and differential interaction maps were generated using graph scores.

[6] = tested on: mouse adipocytes; experiment: Mouse adipocyte-populated collagen I hydrogels with or without mechanical stretch; settings: 10% equibiaxial strain, 7 days; GsMTx4 500 nM, D-GsMTx4 500 nM, PF573228 10 uM, Verteporfin 300 nM
[7] = tested on: existing scars; experiment: Treatment of existing scars during remodeling (scar rescue); format: in vivo, mouse; settings: treated at POD 30, 75 or 120, harvested one month later
Text: While wound re-epithelialization is complete relatively quickly (around 2 weeks), wounds continue to heal beneath the surface for months to years in a process known as scar remodeling. (Foster et al., 2021; Gurtner et al., 2008) Remodeling is the longest and least well understood phase of wound repair but is likely critical to ultimate outcomes. We postulated that ADFs could continue to play a role in scarring during the remodeling process; if this were the case, we wondered whether ADF activity could be targeted during wound remodeling, via P1i in existing, actively remodeling scars, to ultimately reduce scarring and drive regeneration (FIG. 6A,C). Thus, we administered P1i to existing scars at POD 30 (early remodeling period), POD 75 (mid-remodeling), and POD 120 (late remodeling), then harvested tissue one month later at POD 60, POD 105, and […] respectively (FIG. 6A, C).

[8] = tested on: dorsal excisional wounds; settings: POD 30; cited from earlier work
[9] = tested on: adipocytes; experiment: Adipocyte ablation with diphtheria toxin in wounded Adipoq Cre-ERT iDTR mice; format: in vivo, mouse
[10] = tested on: human fibroblasts; experiment: Human fibroblasts in 3D collagen gels with stretching; format: cell-based
Text: To further confirm that human cluster 3 represented a pro-regenerative ADF population we utilized our in vitro collagen gel system. We first, FACS sorted human fibroblasts based on expression of cluster 3 markers including ROBO2, CD29, and SFRP2 and seeded them into 3D collagen gels (FIG. 42B). […] In contrast, stretching with P1 inhibition kept the fibroblasts in a more adipocyte-like phenotype, with high expression of PPARg and low expression of Collagen Type I, similar to fibroblasts in an unstretched state (FIG. 42B).
To determine if P1i may activate […] Wnt pathways to maintain cluster 3 in an adipocyte-like phenotype, we applied Wnt5a recombinant protein to the in vitro collagen gel system (FIG. 42C). […] In summary, P1i treatment may revert fibroblasts towards the mechanically naïve fibroblast pro-regenerative fibroblast population through the activation of canonical Wnt pathways and thereby preventing the transition to pro-scarring phenotypes defined by CJUN and VCAM1 expression.

## Clc1cccc(Cl)c1CSc1nnc(-c2cnccn2)s1 [Yoda1]
[1]; absence of applied stretch
  adipocyte hypertrophy and conversion to fibroblasts: sufficient to drive adipocyte hypertrophy and conversion to fibroblasts

## D-GsMTx4 [P2i]
[2]
  calcium staining with stretching: decreased
[3]; 30 uL of 0.2 mg/ml intradermal at wound edge, POD 0
  time to complete wound re-epithelialization: did not significantly affect
[3]; POD 14
  Oil Red O staining and IF for cytokeratins 14/19 (regenerating appendages): presence of putative regenerating sebaceous glands/HF
[3]; POD 14, FACS and histology
  adipocyte-derived fibroblasts (ADFs) in wounds: significantly reduced
[3]; POD 14 and POD 30
  Col1 and α-SMA: reduced
  ECM density: less dense
[3]; POD 30
  hair follicle formation: allowed for hair follicle formation
[4]; POD 14
  differential interaction maps (Visium): strong interactions between adipocytes and fibroblasts
  fibroblast scRNA-seq cluster 0 (mechanically sensitive) spatial enrichment: highly enriched in PBS-treated POD 14 wounds compared to P1i or P2i treated wounds
  fibroblast scRNA-seq cluster 5 (mechanically naive) spatial presence: observed
  spatially variable features (gene expression): high expression of markers associated with the epidermis including Krt1 and Krt14
[4]; POD 14, vs PBS
  adipocyte and epithelial cells in the spatial environment: enriched
[5]
  individual adipocyte-fibroblast subpopulation interactions (CODEX): enhanced interactions between mechanically naïve subpopulations including adipocyte cluster 1 and fibroblast clusters 2 and 4
[6]
  stretch-induced phenotypic switch (losing adiponectin, expressing Col1): abrogated
[1]; 10% equibiaxial strain, 7 days
  stretch-induced hypertrophy of human adipocytes: reversed

## Verteporfin [YAPi]
[7]
  wound regeneration in existing scars: did not induce regeneration
[8]
  hair regrowth (previous study, Mascharak et al., 2021a): allow for hair regrowth
[6]
  stretch-induced phenotypic switch (losing adiponectin, expressing Col1): abrogated

## CS(=O)(=O)c1cccc(CNc2nc(Nc3ccc4c(c3)CCC(=O)N4)ncc2C(F)(F)F)c1 [FAKi, PF573228]
[6]
  stretch-induced phenotypic switch (losing adiponectin, expressing Col1): abrogated

## diphtheria toxin [DT]
[9]; 200 ng intradermal daily over 3 days, unwounded skin and POD 14 wounds
  subdermal fat and GFP+ cells (efficacy of ablation): minimal to no subdermal fat and no GFP^+ cells in wounds
[9]; POD 14
  ECM ultrastructure: less scar-like and more closely resembled unwounded skin
[9]; POD 14, vs PBS control scars
  Col1 and α-SMA content: decreased
  ECM density: less dense
  dermal thickness: significantly reduced

B1: Wnt5a recombinant protein: Wnt5a recombinant protein applied to the in vitro collagen gel system (protein, UniProt P41221 62-380, looked up)
Protein Wnt-5a: IIGAQPLCSQLAGLSQGQKKLCHLYQDHMQYIGEGAKTGIKECQYQFRHRRWNCSTVDNTSVFGRVMQIGSRETAFTYAVSAAGVVNAMSRACREGELSTCGCSRAARPKDLPRDWLWGGCGDNIDYGYRFAKEFVDARERERIHAKGSYESARILMNLHNNEAGRRTVYNLADVACKCHGVSGSCSLKTCWLQLADFRKVGDALKEKYDSAAAMRLNSRGKLVQVNSRFNSPTTQDLVYIDPSPDYCVRNESTGSLGTQGRLCNKTSEGMDGCELMCCGRGYDQFKTVQTERCHCKFHWCCYVKCKKCTEIVDQFVCK
[10]
  phenotype of human fibroblasts (PPARg, Collagen Type 1): a more adipocyte like phenotype with high expression of PPARg and low expression of Collagen Type 1
